IC50 and solubility data for 1 compound are collected here from patent US11059823B2, “Small molecule inhibitors of the JAK family of kinases” (Janssen Pharmaceutica NV, priority 2016, dated 2021).

The target in one data set is JAK1-JH1JH2 (Homo sapiens (Human), UniProt P23458). Description: Enzymatic inhibition assay (HTMS), JAK1. Format: biochemical. The following applies: 12.5 μM ATP; read-out: JAK1_JH1JH2 IC50. The source says:
(§1) JAK1-JH1JH2 (574-1154 with a His-GST Tag and a C-terminal tev (ENLYFQ-G) cleavage site), JAK3-JH1JH2 (512-1124 with a GST Tag and a C-terminal tev (ENLYFQ-G) cleavage site), and Tyk2-JH1JH2 (8H_tev_580-1182-C936A-C1142A with a C-terminal tev (ENLYFQ-G) cleavage site) were purified internally. […] LC/MS grade water and acetonitrile (ACN), were purchased from HoneyWell, Burdick & Jackson (Muskegon, Mich., USA). Dimethylsulfoxide 99.8% (DMSO) and trifluoroacetic acid 99.5% (TFA) were purchased from EMD Chemical (Gibbstown, N.J., USA). Adenosine triphosphate (ATP), 4-morpholinepropanesulfonic acid (MOPS), magnesium chloride (MgCl2), ethylenediaminetetraacetic acid (EDTA), dithiothreitol (DTT), formic acid >95% (FA) and Tween-20 were purchased from Sigma (St Louis, Mo., USA). 384-well polypropylene plates, Cat#781280 were purchased from Greiner (Monroe, N.C.), RapidFire™ cartridge A C4 Column (Agilent Technologies, Santa Clara, Calif.). […]
(§2) 11-point dosing series were made for each compound by serially diluting 1:3 or 1:4 in DMSO, with point 12 being a DMSO control. […] Compound inhibition was assessed by a decrease of the phosphorylated product levels in sample wells compared to the non-inhibited enzyme reaction. […]

Another data set concerns the target JAK2-JH1JH2 (Homo sapiens (Human), UniProt O60674). Briefly: Enzymatic inhibition assay (HTMS), JAK2. Format: biochemical. The following applies: 30 μM ATP; read-out: JAK2_I_JH1JH2 IC50.
Text: as §1, §2

Another data set addresses JAK3-JH1JH2 (Homo sapiens (Human), UniProt P52333). Description: Enzymatic inhibition assay (HTMS), JAK3. The following applies: 150 μM ATP; read-out: JAK3_I_JH1JH2 IC50. In kind it is biochemical.
Text: as §1, §2

A further data set concerns the target Tyk2-JH1JH2 (Homo sapiens (Human), UniProt P29597, C1142A/C936A). Briefly: Enzymatic inhibition assay (HTMS), Tyk2. In kind it is biochemical. The following applies: 50 μM ATP; read-out: Tyk2_I_JH1JH2 IC50.
Text: as §1, §2

A short description of another data set: physchem. The following applies: thermodynamic from solid.

A value given as a limit tells only on which side of the number the result lay.

JAK3-JH1JH2, sequence (P52333 512-1124): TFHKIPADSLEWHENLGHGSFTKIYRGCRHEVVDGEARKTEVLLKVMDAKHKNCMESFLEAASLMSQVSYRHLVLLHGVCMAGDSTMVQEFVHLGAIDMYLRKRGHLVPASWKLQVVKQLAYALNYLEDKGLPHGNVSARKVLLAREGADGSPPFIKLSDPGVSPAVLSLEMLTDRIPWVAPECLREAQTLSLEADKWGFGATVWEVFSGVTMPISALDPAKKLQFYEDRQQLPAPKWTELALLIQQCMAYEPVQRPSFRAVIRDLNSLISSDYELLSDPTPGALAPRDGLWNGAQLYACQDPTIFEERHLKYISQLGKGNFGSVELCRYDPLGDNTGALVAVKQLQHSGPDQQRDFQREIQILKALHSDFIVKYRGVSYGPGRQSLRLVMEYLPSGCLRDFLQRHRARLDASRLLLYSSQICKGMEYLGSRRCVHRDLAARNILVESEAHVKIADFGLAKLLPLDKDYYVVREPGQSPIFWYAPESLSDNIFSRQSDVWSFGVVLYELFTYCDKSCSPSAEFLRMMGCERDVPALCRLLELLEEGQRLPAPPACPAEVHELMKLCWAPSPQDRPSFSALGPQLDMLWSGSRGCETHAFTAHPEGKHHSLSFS
Tyk2-JH1JH2, sequence (P29597 580-1182 C936A/C1142A): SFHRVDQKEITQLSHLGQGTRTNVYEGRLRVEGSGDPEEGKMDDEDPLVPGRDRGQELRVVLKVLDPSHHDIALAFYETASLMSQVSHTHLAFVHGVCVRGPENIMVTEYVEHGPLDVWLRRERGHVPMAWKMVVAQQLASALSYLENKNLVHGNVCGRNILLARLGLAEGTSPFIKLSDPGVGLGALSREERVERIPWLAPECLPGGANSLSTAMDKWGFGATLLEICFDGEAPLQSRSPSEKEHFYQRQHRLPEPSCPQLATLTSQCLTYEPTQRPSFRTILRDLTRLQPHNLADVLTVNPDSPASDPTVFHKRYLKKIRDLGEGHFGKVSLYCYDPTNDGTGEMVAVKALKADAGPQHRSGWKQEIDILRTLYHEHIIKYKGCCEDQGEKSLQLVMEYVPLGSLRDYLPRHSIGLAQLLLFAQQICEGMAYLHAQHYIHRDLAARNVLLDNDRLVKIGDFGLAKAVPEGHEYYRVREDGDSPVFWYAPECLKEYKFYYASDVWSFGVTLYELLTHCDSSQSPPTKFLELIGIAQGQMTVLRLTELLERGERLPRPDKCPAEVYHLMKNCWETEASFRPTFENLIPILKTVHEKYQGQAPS
JAK1-JH1JH2, sequence (P23458 574-1154): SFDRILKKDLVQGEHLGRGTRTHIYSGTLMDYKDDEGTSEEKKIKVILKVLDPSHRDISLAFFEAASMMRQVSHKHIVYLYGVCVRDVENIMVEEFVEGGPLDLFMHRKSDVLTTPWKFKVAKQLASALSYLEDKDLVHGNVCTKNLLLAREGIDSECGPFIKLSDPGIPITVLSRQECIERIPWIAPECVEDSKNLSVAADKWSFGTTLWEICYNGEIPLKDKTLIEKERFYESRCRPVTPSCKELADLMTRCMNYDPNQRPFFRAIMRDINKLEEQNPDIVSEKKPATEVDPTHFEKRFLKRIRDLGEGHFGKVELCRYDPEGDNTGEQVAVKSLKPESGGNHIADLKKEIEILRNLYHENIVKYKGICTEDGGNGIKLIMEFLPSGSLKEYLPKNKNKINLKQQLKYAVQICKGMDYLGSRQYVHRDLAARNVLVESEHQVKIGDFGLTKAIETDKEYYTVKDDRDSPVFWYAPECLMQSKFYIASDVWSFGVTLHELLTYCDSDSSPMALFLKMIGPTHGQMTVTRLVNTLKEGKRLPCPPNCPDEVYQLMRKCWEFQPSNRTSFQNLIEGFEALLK
JAK2-JH1JH2, sequence (O60674 532-1132): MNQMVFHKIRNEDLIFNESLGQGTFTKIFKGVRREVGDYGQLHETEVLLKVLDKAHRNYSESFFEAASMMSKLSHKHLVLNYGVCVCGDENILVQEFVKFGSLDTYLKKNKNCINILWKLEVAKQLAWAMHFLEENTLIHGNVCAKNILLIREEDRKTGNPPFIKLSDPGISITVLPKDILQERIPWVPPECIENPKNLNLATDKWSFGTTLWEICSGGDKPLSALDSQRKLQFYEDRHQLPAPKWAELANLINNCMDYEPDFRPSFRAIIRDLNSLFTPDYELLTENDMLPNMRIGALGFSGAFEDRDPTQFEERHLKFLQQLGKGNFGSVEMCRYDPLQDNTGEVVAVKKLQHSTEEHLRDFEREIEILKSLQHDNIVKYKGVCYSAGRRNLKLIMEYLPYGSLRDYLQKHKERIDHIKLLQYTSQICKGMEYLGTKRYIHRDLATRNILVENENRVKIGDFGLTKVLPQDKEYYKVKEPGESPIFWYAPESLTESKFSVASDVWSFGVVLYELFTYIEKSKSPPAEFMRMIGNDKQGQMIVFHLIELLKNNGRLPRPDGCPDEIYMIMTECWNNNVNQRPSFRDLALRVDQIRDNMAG

As for `N#CC[C@H]1CC[C@H](n2c(-c3c[nH]cn3)nc3cnc4[nH]ccc4c32)CC1` [Ex. 2, 2-((1r,4r)-4-(2-(1H-Imidazol-4-yl)imidazo[4,5-d]pyrrolo[2,3-b]pyridin-1(6H)-yl)cyclohexyl)acetonitrile], the half-maximal inhibitory concentration (IC50) at JAK1-JH1JH2 was 0.2 nM; at JAK2-JH1JH2 it was 1 nM; at JAK3-JH1JH2 it was 33.9 nM; at Tyk2-JH1JH2, 1.5 nM. Besides, the solubility was greater than 400 µM in the data set “physchem” (pH 6.5, fassif) and greater than 400 µM in the data set “physchem” (simulated gastric fluid).
